Experimental data: PMC8147177, “Bio-Insecticide of Thymus vulgaris and Ocimum basilicum Extract from Cell Suspensions and Their Inhibitory Effect against Serine, Cysteine, and Metalloproteinases of the Red Palm Weevil (Rhynchophorus ferrugineus)” (Insects, 2021)
Converted amounts (≈) assume the structure as drawn. Each block holds one compound with its values, some of them ahead of it.

Legend:
Assay type in all cases: biochemical, Rhynchophorus ferrugineus
[1] = tested on: elastase-like proteinase of R. ferrugineus midgut; experiment: Elastase-like serine proteinase specific activity assay (SAAPLpNA) in 4th instar midgut homogenate; conditions: for Specific activity, Elastase: control 8.23 ± 0.02; for IC50 against elastase: in vitro, midgut of 4th instar larvae
Description: (§1) Serine proteinase specific activities were assayed, as described by Olga et al. with modifications, using a rapid microplate assay with synthetic substrates in 150 µL reaction mixtures containing a serine protease assay buffer (100 mM Tris-HCl, pH 8.1). Na-benzoyl-L-arginine ρ-nitroanilide (BAρNA) was evaluated for trypsin-like proteinases, N-succinyl-ala-alapro-leucine ρ-nitroanilide (SAAPLρNA) for elastase-like proteinases, and N-succinyl-ala-ala-pro-phenylalanine ρ-nitroanilide (SAAPFρNA) for chymotrypsin-like proteinases.
(§2) The 4th instar midguts were homogenized with the assay buffer. The homogenates of midguts were centrifuged at 8000× g for 30 min using Sigma 3K 30 rotors No. 12158 (Sigma laboratories centrifuge 3K30). Enzyme (10 µL) was added to each plate well (containing 40 µL of buffers) for the assays chymotrypsin-, trypsin-, and elastase-like proteinases. Stock substrates of BAρNA (100 mg/mL in DMSO), SAAPFρNA (100 mg/mL in DMF), and SAAPLρNA (100 mg/mL in DMF) were diluted to 1.0 mg/mL with an assay buffer. The total volume of the substrate was 50 µL. The reaction mixture was immediately incubated at 37 °C for 15 min and then stopped with 50 µL 30% acetic acid. Nitroaniline was measured at 405 nm using an ELISA plate reader. An assay mixture with a denaturation enzyme instead of a live enzyme was used as the blank well. Specific proteinase activities were expressed in OD/min mg protein in triplicate (for three substrates).
(§3) Specific protease inhibitors were added to the reactions of proteolytic activity determination assays, and the inhibitors were: PMSF, a general serine proteinase inhibitor; TLCK, a trypsin-like serine proteinase inhibitor; TPCK, a chymotrypsin-like serine proteinase inhibitor; an iodoacetic acid-like cysteine proteinase inhibitor; an EDTA-like metalloproteinase inhibitor; and leupeptin, a general proteinase inhibitor. The 4th midgut larval homogenates of a lab strain were prepared as described above in the assay for enzyme activity determination. The inhibition assay was carried out on a microplate assay as described above. A series of inhibitor concentrations was prepared in order to establish the maximum inhibition by each inhibitor. The leupeptin (0.01, 0.05, 0.1, and 1.0 mM), PMSF (0.1, 1.0, 10, and 50 mM), TLCK and TPCK (0.01, 0.05, 0.1, 1, 50, and 100 mM), EDTA (0.1, 1, 10, 50, and 100 mM), and iodoacetic acid concentrations (0.01, 0.05, 0.1, and 1 mM) were dissolved in the assay buffers.
(§4) To identify the proteases present in the R. ferrugineus 4th midgut larval instar homogenate preparations, different mechanistic class inhibitors were tested. In all protease types, enzyme samples of 10 µL and inhibitors or extracts from the cell suspension after 40 days or pure compounds (thymol, p-cymene, γ-terpinene, β-caryophyllene, linalool, estragole, β-terpineol, ocimene, 1,8-cineole, germacrene D, and eugenol) (1, 10, 50, 100, 500, 1000, and 5000 mg/L) were pre-incubated for 10 min before adding the substrate. An assay mixture without inhibitors was used as control. Absorbance was measured using an ELISA plate reader at different nm according to the type of enzymes. Percent activity of the control for each inhibitor was calculated to each enzyme.

[2] = tested on: total proteases of R. ferrugineus midgut; experiment: Total proteolytic enzyme activity (azocasein) in 4th instar larval midgut homogenate; conditions: for IC50 against total proteases: in vitro, midgut of 4th instar larvae; for Specific activity, Total Proteases: control 25.83 ± 0.45
Description: Protein determination was carried out according to the Lowry method. Total proteolytic enzyme activity using azocasein was assessed in the 4th midgut instars larvae homogenate of R. ferrugineus according to Olga et al., [42] with modifications. The 4th midgut larvae homogenates of lab strain (10 larvae) were pulled out gently, excised, and washed using a saline solution (0.9% (w/v) NaCl) repeatedly and then homogenized using 500 µL of an assay buffer. The midgut instar was homogenized in 500 µL of a protease assay buffer [50 mM HEPS (N-2-hydroxyelthyl piperazin-N′-2-ehtanesulphonic acid), pH 8.0, 5 mM dithiothreitol (DTT) and 0.1% (v/v) Triton X-100]. The reserve homogenates that were obtained from a previous step were centrifuged at 5000× g for 30 min using a Sigma 3k30 cooling centrifuge. The supernatants were used for estimation of the total proteolytic enzyme activity and protein concentration. Ten microliters of supernatant per assay was incubated in a total volume of 60 µL of assay buffer (pH 8) for 20 min at 37 °C before the addition of 200 µL of azocasien (2%, w/v in an assay buffer).
In all cases, enzyme samples of 10 μL, hydro distillate extract from the cell suspension after 40 days, and pure compounds (thymol, estragole, p-cymene, γ-terpinene, linalool, β-terpineol, ocimene, eugenol, 1,8-cineole, β-Caryophyllene, and germacrene D) (50, 100, 500, 1000, and 5000 mg/L) were pre-incubated together for 10 min. Substrate was then added to start the reaction (20 min for Leupeptin). The reaction lasted for 180 min at 37 °C and was then stopped using 300 µL of cold 10% (v/v) trichloroacetic acid (TCA). The reaction mixture was centrifuged at 5000× g for 20 min using the Sigma 3k30 cooling centrifuge. Ten microliters of NaOH (10 N) was added to the supernatant, and absorbency at 450 nm was measured using an ELISA plate reader. An assay mixture without an enzyme was used as a blank, the specific activity of total proteolytic enzymes was calculated as OD450. mg^−1·protein^−1·h^−1, and a blank sample was determined without an enzyme solution.
as §3, §4

[3] = tested on: trypsin-like serine proteinase of R. ferrugineus midgut; experiment: Trypsin-like serine proteinase specific activity assay (BApNA) in 4th instar midgut homogenate; conditions: for Specific activity, Trypsin: control 4.10 ± 0.11; for IC50 against trypsin-like serine proteinase: in vitro, midgut of 4th instar larvae
Description: as §1, §2, §3, §4

[4] = tested on: metalloproteinase of R. ferrugineus midgut; experiment: Metalloproteinase specific activity assay (azocasein) in 4th instar midgut homogenate; conditions: control 1.15
Description: The 4th midgut larvae (10 larvae) were pulled out gently, excised, washed with saline solution (0.9% NaCl) repeatedly to remove foodstuff and then homogenized in a 500 µL assay buffer. […] The homogenates were centrifuged at 5000× g for 30 min using the Sigma 3k30 cooling centrifuge. The supernatants were used for estimation of enzyme activity and protein concentration. […] The reaction was stopped with 300 µL of cold 10% trichloroacetic acid (TCA) and proceeded for 180 min at 37 °C. The reaction mixture was centrifuged at 5000× g for 20 min using the Sigma 3k30 cooling centrifuge, 10 µL of 10 N NaOH was added to the supernatant, and absorbance at 450 nm was measured using an ELISA plate reader. An assay mixture without an enzyme was used as the blank. […] Specific protease inhibitors were added to the reactions of proteolytic activity determination assays, and the inhibitors were: PMSF, a general serine proteinase inhibitor; […] The inhibition assay was carried out on a microplate assay as described above. A series of inhibitor concentrations was prepared in order to establish the maximum inhibition by each inhibitor. […] An assay mixture without inhibitors was used as control. Absorbance was measured using an ELISA plate reader at different nm according to the type of enzymes. Percent activity of the control for each inhibitor was calculated to each enzyme.

[5] = tested on: cysteine proteinase of R. ferrugineus midgut; experiment: Cysteine proteinase specific activity assay (Z-Phe-Arg-MNA) in 4th instar midgut homogenate; conditions: for Specific activity, Cysteine Protease: control 0.59 ± 0.05
Description: as §3, §4

[6] = tested on: chymotrypsin-like serine proteinase of R. ferrugineus midgut; experiment: Chymotrypsin-like serine proteinase specific activity assay (SAAPFpNA) in 4th instar midgut homogenate; conditions: for Specific activity, Chymotrypsin: control 7.35 ± 0.02
Description: as §1, §2, §3, §4

SMILES: O=S(=O)(F)Cc1ccccc1 [PMSF, phenymethanesulfonyl fluoride]
Specific activity, Elastase ([1]; inhibitor 0.1 mM): 6.46 ± 0.01 OD/mg protein min
Specific activity, Elastase ([1]; inhibitor 1 mM): 5.26 ± 0.03 OD/mg protein min
Specific activity, Elastase ([1]; inhibitor 10 mM): 4.18 ± 0.03 OD/mg protein min
Specific activity, Elastase ([1]; inhibitor 50 mM): 3.98 ± 0.0 OD/mg protein min
Inhibition of midgut proteases (in words) ([2]; purified proteases from midgut 4th larval instars): strongly inhibited

SMILES: Cc1ccc(S(=O)(=O)N[C@@H](CCCCN)C(=O)CCl)cc1 [TLCK, N,p-tosyl-L-lysine chloromethyl ketone]
Specific activity, Trypsin ([3]; inhibitor 0.01 mM): 3.90 ± 0.11 OD/mg protein min
Specific activity, Trypsin ([3]; inhibitor 0.05 mM): 3.82 ± 0.1 OD/mg protein min
Specific activity, Trypsin ([3]; inhibitor 0.1 mM): 3.57 ± 0.1 OD/mg protein min
Specific activity, Trypsin ([3]; inhibitor 1 mM): 3.41 ± 0.09 OD/mg protein min
Specific activity, Trypsin ([3]; inhibitor 10 mM): 3.08 ± 0.1 OD/mg protein min
Specific activity, Trypsin ([3]; inhibitor 50 mM): 2.84 ± 0.09 OD/mg protein min
Specific activity, Trypsin ([3]; inhibitor 100 mM): 2.12 ± 0.1 OD/mg protein min
Inhibition of midgut instar proteases (in words) ([3]; trypsin-like serine proteinase inhibitor): significantly inhibited

IC50 against elastase [1]: 195 µg/mL (≈ 1300 µM)
SMILES: Cc1ccc(C(C)C)c(O)c1 [thymol]
IC50 against total proteases [2]: 189.7 µg/mL (≈ 1260 µM)

SMILES: C=C(C)C1CCC(C)(O)CC1 (stereo not drawn) [β-terpineol]
IC50 against total proteases [2]: 214 µg/mL (≈ 1390 µM)

SMILES: C=CCc1ccc(O)c(OC)c1 [eugenol]
IC50 against trypsin-like serine proteinase [3]: 74.1 µg/mL (≈ 451 µM)
IC50 against total proteases [2]: 99.7 µg/mL (≈ 607 µM)

IC50 against trypsin-like serine proteinase [3]: 98.4 µg/mL (≈ 733 µM)
IC50 against elastase [1]: 169 µg/mL (≈ 1260 µM)
SMILES: Cc1ccc(C(C)C)cc1 [p-cymene]
IC50 against total proteases [2]: 121.8 µg/mL (≈ 907 µM)

IC50 against trypsin-like serine proteinase [3]: 71.7 µg/mL (≈ 465 µM)
IC50 against elastase [1]: 116 µg/mL (≈ 752 µM)
SMILES: CC12CCC(CC1)C(C)(C)O2 [1,8-cineole]
IC50 against total proteases [2]: 92.1 µg/mL (≈ 597 µM)

IC50 against elastase [1]: 109.1 µg/mL (≈ 707 µM)
SMILES: C=CC(C)(O)CCC=C(C)C (stereo not drawn) [linalool]
IC50 against total proteases [2]: 197 µg/mL (≈ 1280 µM)

IC50 against trypsin-like serine proteinase [3]: 105.7 µg/mL (≈ 776 µM)
IC50 against elastase [1]: 163 µg/mL (≈ 1200 µM)
SMILES: CC1=CCC(C(C)C)=CC1 [γ-terpinene]
IC50 against total proteases [2]: 137.3 µg/mL (≈ 1010 µM)

SMILES: CC(=O)N[C@@H](CC(C)C)C(=O)N[C@@H](CC(C)C)C(=O)N[C@H](C=O)CCCNC(=N)N [Leupeptin, leupeptin]
Specific activity, Total Proteases ([2]; inhibitor 0.01 mM): 0.12 ± 0.05 OD/mg protein min
Specific activity, Total Proteases ([2]; inhibitor 0.05 mM): 0.08 ± 0.05 OD/mg protein min
Specific activity, Total Proteases ([2]; inhibitor 0.1 mM): 0.07 ± 0.05 OD/mg protein min
Specific activity, Total Proteases ([2]; inhibitor 1 mM): 0.01 ± 0.05 OD/mg protein min

Specific activity, Metallo-Protease ([4]; inhibitor 0.1 mM): 0.89 ± 0.11 OD/mg protein min
Specific activity, Metallo-Protease ([4]; inhibitor 1 mM): 0.80 ± 0.11 OD/mg protein min
Specific activity, Metallo-Protease ([4]; inhibitor 10 mM): 0.68 ± 0.11 OD/mg protein min
Specific activity, Metallo-Protease ([4]; inhibitor 50 mM): 0.59 ± 0.1 OD/mg protein min
Specific activity, Metallo-Protease ([4]; inhibitor 100 mM): 0.42 ± 0.1 OD/mg protein min
SMILES: O=C([O-])CN(CCN(CC(=O)O)CC(=O)O)CC(=O)[O-].[Na+].[Na+] [EDTA, ethylenediaminetetraacetic acid disodium salt]

SMILES: O=C(O)CI [Iodoacetic acid, iodoacetic acid]
Inhibition of midgut instar proteases (in words) ([5]; cysteine protease inhibitor): significantly inhibited
Specific activity, Cysteine Protease ([5]; inhibitor 0.01 mM): 0.28 ± 0.04 OD/mg protein min
Specific activity, Cysteine Protease ([5]; inhibitor 0.05 mM): 0.24 ± 0.05 OD/mg protein min
Specific activity, Cysteine Protease ([5]; inhibitor 0.1 mM): 0.19 ± 0.04 OD/mg protein min
Specific activity, Cysteine Protease ([5]; inhibitor 1 mM): 0.16 ± 0.05 OD/mg protein min

SMILES: Cc1ccc(S(=O)(=O)N[C@@H](Cc2ccccc2)C(=O)CCl)cc1 [TPCK, N,alpha-tosyl-L-phenylalanine chloromethyl ketone]
Inhibition of midgut instar proteases (in words) ([6]; chymotrypsin-like serine proteinase inhibitor): significantly inhibited
Specific activity, Chymotrypsin ([6]; inhibitor 0.01 mM): 6.97 ± 0.03 OD/mg protein min
Specific activity, Chymotrypsin ([6]; inhibitor 0.05 mM): 6.40 ± 0.02 OD/mg protein min
Specific activity, Chymotrypsin ([6]; inhibitor 0.1 mM): 6.18 ± 0.02 OD/mg protein min
Specific activity, Chymotrypsin ([6]; inhibitor 1 mM): 5.28 ± 0.02 OD/mg protein min
Specific activity, Chymotrypsin ([6]; inhibitor 10 mM): 4.87 ± 0.02 OD/mg protein min
Specific activity, Chymotrypsin ([6]; inhibitor 50 mM): 3.64 ± 0.03 OD/mg protein min
Specific activity, Chymotrypsin ([6]; inhibitor 100 mM): 2.02 ± 0.02 OD/mg protein min
